According to the kinase profiling compilation of Christmann-Franck et al. (2016):
Values belong to the molecule of their own block, whether it stands above or below them.

Key:
Assay in all cases: radiometric filter-binding kinase assay, Kinase HotSpot
Details in all cases: compound 0.5 µM; ATP 10 µM
[1] = target: TSSK1B (human) (UniProt Q9BXA7)
[2] = target: CSNK1G2 (human) (UniProt P78368)
[3] = target: MAPK12 (human) (UniProt P53778)
[4] = target: WEE1 (human) (UniProt P30291)
[5] = target: PDPK1 (human) (UniProt O15530)
[6] = target: MELK (human) (UniProt Q14680)
[7] = target: RPS6KA1 KD1 KD2 (human) (UniProt Q15418)
Sequence of RPS6KA1 KD1 KD2 (human) (Q15418 whole entry, looked up): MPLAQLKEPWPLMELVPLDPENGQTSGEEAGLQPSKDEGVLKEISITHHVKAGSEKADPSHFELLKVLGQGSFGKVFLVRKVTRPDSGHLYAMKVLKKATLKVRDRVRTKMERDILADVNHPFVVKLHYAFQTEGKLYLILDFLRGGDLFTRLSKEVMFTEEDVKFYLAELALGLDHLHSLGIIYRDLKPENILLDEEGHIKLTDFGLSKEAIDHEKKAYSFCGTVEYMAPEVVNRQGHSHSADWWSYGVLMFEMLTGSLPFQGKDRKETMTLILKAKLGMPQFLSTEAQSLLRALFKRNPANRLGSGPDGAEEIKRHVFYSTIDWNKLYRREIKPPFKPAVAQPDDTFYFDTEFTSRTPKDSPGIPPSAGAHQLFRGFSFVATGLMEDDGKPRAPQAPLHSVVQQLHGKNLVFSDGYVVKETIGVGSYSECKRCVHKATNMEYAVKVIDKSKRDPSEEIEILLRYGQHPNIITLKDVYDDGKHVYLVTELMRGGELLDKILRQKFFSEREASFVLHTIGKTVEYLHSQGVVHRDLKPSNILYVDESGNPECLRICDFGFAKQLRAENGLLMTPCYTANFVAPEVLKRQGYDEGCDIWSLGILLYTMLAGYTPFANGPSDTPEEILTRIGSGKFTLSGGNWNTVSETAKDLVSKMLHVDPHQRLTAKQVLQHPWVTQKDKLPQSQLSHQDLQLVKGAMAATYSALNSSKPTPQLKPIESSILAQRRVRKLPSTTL

[8] = target: MAPK14 (human) (UniProt Q16539)
[9] = target: CDK4 CCND1 (human) (UniProt P24385+P11802)
[10] = target: MAPK8 (human) (UniProt P45983)
[11] = target: PTK2 (human) (UniProt Q05397)
[12] = target: PAK4 (human) (UniProt O96013)
[13] = target: WNK2 (human) (UniProt Q9Y3S1)
[14] = target: NEK2 (human) (UniProt P51955)
[15] = target: GRK5 (human) (UniProt P34947)
Sequence of GRK5 (human) (P34947 whole entry, looked up): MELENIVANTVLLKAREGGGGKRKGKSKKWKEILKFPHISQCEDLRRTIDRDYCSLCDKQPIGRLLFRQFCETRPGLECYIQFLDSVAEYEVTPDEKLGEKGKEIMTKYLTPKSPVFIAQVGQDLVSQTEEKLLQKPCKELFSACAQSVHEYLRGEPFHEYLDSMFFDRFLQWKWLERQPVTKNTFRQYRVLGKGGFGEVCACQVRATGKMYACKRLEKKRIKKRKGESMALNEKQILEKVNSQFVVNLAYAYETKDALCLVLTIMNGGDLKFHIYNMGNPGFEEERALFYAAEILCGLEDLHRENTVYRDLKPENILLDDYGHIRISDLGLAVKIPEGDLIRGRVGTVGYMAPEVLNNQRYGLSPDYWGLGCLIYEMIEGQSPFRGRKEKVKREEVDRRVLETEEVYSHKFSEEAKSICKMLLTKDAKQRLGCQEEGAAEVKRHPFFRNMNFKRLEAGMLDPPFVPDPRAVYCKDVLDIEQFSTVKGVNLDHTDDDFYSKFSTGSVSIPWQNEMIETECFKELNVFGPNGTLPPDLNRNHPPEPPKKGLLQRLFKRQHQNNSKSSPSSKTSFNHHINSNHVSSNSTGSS

[16] = target: YES1 (human) (UniProt P07947)
[17] = target: TAOK3 (human) (UniProt Q9H2K8)
Sequence of TAOK3 (human) (Q9H2K8 whole entry, looked up): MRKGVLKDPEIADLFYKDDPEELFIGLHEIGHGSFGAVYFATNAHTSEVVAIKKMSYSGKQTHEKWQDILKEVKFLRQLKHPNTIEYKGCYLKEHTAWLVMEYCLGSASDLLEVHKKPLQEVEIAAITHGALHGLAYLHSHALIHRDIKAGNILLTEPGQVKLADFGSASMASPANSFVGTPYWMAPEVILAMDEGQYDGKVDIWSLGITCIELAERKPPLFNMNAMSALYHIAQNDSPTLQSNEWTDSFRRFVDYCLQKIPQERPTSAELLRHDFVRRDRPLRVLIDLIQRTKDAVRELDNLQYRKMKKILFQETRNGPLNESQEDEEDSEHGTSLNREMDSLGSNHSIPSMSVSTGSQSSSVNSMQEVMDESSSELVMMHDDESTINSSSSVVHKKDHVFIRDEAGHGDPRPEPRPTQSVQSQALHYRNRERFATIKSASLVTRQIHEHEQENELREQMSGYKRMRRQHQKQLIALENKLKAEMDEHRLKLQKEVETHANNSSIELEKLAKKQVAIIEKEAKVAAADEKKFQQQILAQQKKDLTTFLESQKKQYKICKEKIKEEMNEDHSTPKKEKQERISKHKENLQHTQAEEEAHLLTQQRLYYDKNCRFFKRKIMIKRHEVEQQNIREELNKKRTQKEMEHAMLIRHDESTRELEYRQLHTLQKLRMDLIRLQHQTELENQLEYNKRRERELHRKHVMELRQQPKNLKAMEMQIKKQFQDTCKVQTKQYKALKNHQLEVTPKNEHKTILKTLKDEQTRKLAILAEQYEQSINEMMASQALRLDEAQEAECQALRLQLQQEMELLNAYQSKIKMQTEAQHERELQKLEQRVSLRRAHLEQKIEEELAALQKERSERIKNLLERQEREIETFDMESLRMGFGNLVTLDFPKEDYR

[18] = target: MAPK10 (human) (UniProt P53779)
[19] = target: NLK (human) (UniProt Q9UBE8)
[20] = target: TGFBR1 (human) (UniProt P36897)
[21] = target: PRKCZ (human) (UniProt Q05513)
[22] = target: LTK (human) (UniProt P29376)
[23] = target: TEK (human) (UniProt Q02763)
Sequence of TEK (human) (Q02763 whole entry, looked up): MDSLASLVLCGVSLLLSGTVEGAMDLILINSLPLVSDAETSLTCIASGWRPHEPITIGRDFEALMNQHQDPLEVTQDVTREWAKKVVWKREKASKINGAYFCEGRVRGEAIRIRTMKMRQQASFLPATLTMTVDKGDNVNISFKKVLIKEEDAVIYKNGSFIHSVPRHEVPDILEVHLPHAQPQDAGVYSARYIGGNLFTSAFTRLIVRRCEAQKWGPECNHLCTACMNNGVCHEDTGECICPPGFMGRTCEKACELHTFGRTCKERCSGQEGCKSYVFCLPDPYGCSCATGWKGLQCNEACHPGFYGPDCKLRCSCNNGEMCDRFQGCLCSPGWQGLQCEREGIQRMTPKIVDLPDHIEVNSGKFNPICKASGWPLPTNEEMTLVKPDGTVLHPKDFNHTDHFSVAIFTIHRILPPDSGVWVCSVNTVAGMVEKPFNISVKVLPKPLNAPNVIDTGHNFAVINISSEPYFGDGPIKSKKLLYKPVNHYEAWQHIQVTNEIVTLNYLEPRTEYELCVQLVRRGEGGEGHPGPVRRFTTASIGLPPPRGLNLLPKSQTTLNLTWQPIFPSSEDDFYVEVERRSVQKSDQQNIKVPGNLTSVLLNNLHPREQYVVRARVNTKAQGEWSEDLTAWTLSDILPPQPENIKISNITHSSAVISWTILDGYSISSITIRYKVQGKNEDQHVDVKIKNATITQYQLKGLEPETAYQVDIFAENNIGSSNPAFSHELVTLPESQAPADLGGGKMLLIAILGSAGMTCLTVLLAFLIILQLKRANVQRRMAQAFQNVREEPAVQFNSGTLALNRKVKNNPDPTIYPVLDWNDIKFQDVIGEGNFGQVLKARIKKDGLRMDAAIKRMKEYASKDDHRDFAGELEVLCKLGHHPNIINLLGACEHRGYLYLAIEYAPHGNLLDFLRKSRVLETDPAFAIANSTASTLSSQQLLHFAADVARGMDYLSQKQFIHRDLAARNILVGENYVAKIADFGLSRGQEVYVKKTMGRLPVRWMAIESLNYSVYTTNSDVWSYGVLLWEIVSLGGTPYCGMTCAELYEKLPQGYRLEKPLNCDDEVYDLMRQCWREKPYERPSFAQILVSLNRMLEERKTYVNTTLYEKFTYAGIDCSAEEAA

[24] = target: RPS6KB2 (human) (UniProt Q9UBS0)
[25] = target: CSNK2A1 (human) (UniProt P68400)
[26] = target: SRPK2 (human) (UniProt P78362)
Sequence of SRPK2 (human) (P78362 whole entry, looked up): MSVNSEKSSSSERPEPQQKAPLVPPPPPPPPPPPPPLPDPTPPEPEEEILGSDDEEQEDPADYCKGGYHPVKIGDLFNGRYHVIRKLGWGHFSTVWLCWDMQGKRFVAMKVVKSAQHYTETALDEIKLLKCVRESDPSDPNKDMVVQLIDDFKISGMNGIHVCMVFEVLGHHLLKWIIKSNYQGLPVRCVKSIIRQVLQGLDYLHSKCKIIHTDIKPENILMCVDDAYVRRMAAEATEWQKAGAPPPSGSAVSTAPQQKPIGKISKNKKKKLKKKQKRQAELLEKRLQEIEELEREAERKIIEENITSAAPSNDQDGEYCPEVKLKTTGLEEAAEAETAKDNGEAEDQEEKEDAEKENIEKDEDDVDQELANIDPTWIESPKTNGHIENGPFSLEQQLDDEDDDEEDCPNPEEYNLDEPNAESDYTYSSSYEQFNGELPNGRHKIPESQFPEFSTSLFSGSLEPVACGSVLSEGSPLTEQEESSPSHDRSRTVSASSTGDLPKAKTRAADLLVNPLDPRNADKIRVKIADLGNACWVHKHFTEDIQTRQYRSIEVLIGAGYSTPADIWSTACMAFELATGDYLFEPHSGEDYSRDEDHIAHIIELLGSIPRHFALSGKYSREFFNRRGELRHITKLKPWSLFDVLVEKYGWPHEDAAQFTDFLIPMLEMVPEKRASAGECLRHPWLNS

[27] = target: MST1R (human) (UniProt Q04912)
[28] = target: CAMKK1 (human) (UniProt Q8N5S9)
[29] = target: SGK2 (human) (UniProt Q9HBY8)
[30] = target: HCK (human) (UniProt P08631)
[31] = target: TYRO3 (human) (UniProt Q06418)
[32] = target: SRMS (human) (UniProt Q9H3Y6)
Sequence of SRMS (human) (Q9H3Y6 whole entry, looked up): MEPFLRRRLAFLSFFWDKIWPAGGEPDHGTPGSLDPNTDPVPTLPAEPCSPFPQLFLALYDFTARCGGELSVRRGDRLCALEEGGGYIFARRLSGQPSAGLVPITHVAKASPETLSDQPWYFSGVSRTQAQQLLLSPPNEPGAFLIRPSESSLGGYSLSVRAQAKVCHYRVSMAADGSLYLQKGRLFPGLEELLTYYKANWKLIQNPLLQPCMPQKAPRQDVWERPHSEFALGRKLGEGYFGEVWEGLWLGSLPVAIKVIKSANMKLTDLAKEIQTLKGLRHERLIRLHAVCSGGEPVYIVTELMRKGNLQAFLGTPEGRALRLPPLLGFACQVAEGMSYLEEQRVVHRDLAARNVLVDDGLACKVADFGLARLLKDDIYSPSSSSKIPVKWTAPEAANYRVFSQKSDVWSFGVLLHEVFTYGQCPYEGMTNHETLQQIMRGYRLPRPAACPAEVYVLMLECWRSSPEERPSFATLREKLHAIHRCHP

[33] = target: PRKCB2 (human) (UniProt P05771)
[34] = target: CAMK4 (human) (UniProt Q16566)
[35] = target: LRRK2 (human) (UniProt Q5S007)
[36] = target: MAP3K9 (human) (UniProt P80192)
[37] = target: NEK11 (human) (UniProt Q8NG66)
[38] = target: FGFR2 (human) (UniProt P21802)
[39] = target: PKN1 (human) (UniProt Q16512)
[40] = target: SIK2 (human) (UniProt Q9H0K1)
[41] = target: DYRK2 (human) (UniProt Q92630)
[42] = target: CAMK1D (human) (UniProt Q8IU85)

Sequence of MAPK12 (human) (P53778 whole entry, looked up): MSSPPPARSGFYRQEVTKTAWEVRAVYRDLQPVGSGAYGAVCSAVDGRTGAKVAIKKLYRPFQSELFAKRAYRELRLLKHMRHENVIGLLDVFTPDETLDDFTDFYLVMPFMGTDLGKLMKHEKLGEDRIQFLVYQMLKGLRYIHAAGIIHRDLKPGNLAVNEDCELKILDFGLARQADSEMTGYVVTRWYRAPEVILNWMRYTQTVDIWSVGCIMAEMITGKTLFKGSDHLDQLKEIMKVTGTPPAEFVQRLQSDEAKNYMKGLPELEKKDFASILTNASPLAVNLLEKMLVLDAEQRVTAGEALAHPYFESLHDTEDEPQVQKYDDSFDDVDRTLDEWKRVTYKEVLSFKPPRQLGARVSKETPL

residual activity [1]: 83% | residual activity [2]: 105% | residual activity [3]: 93.8% | residual activity [4]: 96% | residual activity [5]: 86.4% | residual activity [6]: 43.5% | residual activity [7]: 47.2% | residual activity [8]: 105% | residual activity [9]: 93.4% | residual activity [10]: 98.7% | residual activity [11]: 89% | residual activity [12]: 95.3% | residual activity [13]: 104% | residual activity [14]: 95.5% | residual activity [15]: 125% | residual activity [16]: 15.8% | residual activity [17]: 56.9% | residual activity [18]: 97.9% | residual activity [19]: 101% | residual activity [20]: 99.8% | residual activity [21]: 100% | residual activity [22]: 89.3% | residual activity [23]: 96.7% | residual activity [24]: 100% | residual activity [25]: 82.2% | residual activity [26]: 63.9% | residual activity [27]: 98.7% | residual activity [28]: 50.5% | residual activity [29]: 73% | residual activity [30]: 13.3% | residual activity [31]: 81.6% | residual activity [32]: 99.6% | residual activity [33]: 108% | residual activity [34]: 96.3% | residual activity [35]: 95.3% | residual activity [36]: 9.21% | residual activity [37]: 118% | residual activity [38]: 59.2% | residual activity [39]: 82.2% | residual activity [40]: 31.1%
SMILES: O=C1Nc2cc(Br)ccc2/C1=C1/Nc2ccccc2/C1=N\O

SMILES: Nc1nc(Nc2ccc(S(N)(=O)=O)cc2)nn1C(=O)c1c(F)cccc1F
residual activity [1]: 85.5% | residual activity [41]: 112% | residual activity [3]: 89.9% | residual activity [4]: 83.6% | residual activity [5]: 92.3% | residual activity [6]: 87.2% | residual activity [7]: 42.1% | residual activity [8]: 97.8% | residual activity [9]: 20% | residual activity [10]: 85.9% | residual activity [11]: 95.5% | residual activity [12]: 90% | residual activity [13]: 116% | residual activity [14]: 94.8% | residual activity [15]: 85.9% | residual activity [16]: 50.6% | residual activity [17]: 39.9% | residual activity [18]: 100% | residual activity [19]: 86% | residual activity [20]: 104% | residual activity [21]: 99.9% | residual activity [22]: 85.8% | residual activity [23]: 84.2% | residual activity [24]: 104% | residual activity [25]: 104% | residual activity [26]: 54.9% | residual activity [27]: 115% | residual activity [28]: 86.4% | residual activity [29]: 106% | residual activity [30]: 86.2% | residual activity [31]: 98.6% | residual activity [32]: 96.5% | residual activity [33]: 90.5% | residual activity [34]: 96.8% | residual activity [35]: 48.3% | residual activity [36]: 25.6% | residual activity [37]: 95.8% | residual activity [38]: 79.7% | residual activity [39]: 89.7% | residual activity [40]: 84.1% | residual activity [42]: 97.7%

SMILES: CS(=O)c1ccc(-c2nc(-c3ccc(F)cc3)c(-c3ccncc3)[nH]2)cc1 (stereo unspecified)
residual activity [1]: 108% | residual activity [41]: 98.7% | residual activity [2]: 95.7% | residual activity [3]: 105% | residual activity [4]: 92.1% | residual activity [5]: 96.3% | residual activity [6]: 102% | residual activity [7]: 99.9% | residual activity [9]: 105% | residual activity [10]: 96.1% | residual activity [11]: 95.5% | residual activity [13]: 103% | residual activity [14]: 105% | residual activity [15]: 104% | residual activity [16]: 92.6% | residual activity [17]: 103% | residual activity [18]: 114% | residual activity [19]: 53.8% | residual activity [20]: 101% | residual activity [21]: 103% | residual activity [22]: 101% | residual activity [23]: 94.5% | residual activity [24]: 97.2% | residual activity [25]: 86.2% | residual activity [26]: 102% | residual activity [27]: 101% | residual activity [28]: 125% | residual activity [29]: 106% | residual activity [30]: 96.1% | residual activity [31]: 97% | residual activity [32]: 102% | residual activity [33]: 97.9% | residual activity [34]: 101% | residual activity [35]: 100% | residual activity [36]: 95% | residual activity [37]: 81.3% | residual activity [38]: 103% | residual activity [39]: 96.5% | residual activity [40]: 82.1% | residual activity [42]: 105%
